According to patent US20190367516A1 (Bayer Pharma Aktiengesellschaft, priority 2015, published 2019):

Target: T1, human M2 receptor (Homo sapiens, UniProt P08172)
T1 sequence (P08172 1-466): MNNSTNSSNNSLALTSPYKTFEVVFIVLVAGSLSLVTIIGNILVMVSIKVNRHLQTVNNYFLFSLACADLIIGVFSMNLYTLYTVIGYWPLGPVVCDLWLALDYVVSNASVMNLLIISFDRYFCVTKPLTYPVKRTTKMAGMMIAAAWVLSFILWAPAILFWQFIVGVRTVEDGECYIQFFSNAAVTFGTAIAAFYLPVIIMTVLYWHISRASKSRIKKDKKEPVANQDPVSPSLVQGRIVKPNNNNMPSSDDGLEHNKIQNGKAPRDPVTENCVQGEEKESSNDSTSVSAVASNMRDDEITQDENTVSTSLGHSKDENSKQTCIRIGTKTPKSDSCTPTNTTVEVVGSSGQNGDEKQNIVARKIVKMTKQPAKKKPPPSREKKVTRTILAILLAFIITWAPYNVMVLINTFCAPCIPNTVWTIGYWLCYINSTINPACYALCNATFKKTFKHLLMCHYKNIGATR
Conditions: Receptor activity EC50, M2-GIRK1/4 activation test, acetylcholine at EC20; allosteric potency; in some cases mean values from two or more determinations

| SMILES | EC50 |
| --- | --- |
| CC[C@@H](NC(=O)c1cn(-c2ccc(F)cc2F)c2nc(N3CCC(O)(O)C(F)C3)ccc2c1=O)C(F)(F)F (mixture of isomers) [Example 34, 1-(2,4-Difluorophenyl)-7-[3-fluoro-4,4-dihydroxypiperidin-1-yl]-4-oxo-N-[(2R)-1,1,1-trifluorobutan-2-yl]-1,4-dihydro-1,8-naphthyridine-3-carboxamide (diastereomer mixture)] | 95 nM |
| O=C(NC12CC3CC(CC(C3)C1)C2)c1cn(-c2ccc(F)cc2F)c2nc(N3CCCC(O)C3)ccc2c1=O (racemic) [Example 14, rac-1-(2,4-Difluorophenyl)-7-(3-hydroxypiperidin-1-yl)-4-oxo-N-(tricyclo[3.3.1.1^3,7]dec-1-yl)-1,4-dihydro-1,8-naphthyridine-3-carboxamide] | 82 nM |
| CCC(NC(=O)c1cn(-c2ccc(F)cc2F)c2nc(N3CC(CO)C3)ccc2c1=O)C(F)(F)F (racemic) [Example 26, rac-1-(2,4-Difluorophenyl)-7-[3-(hydroxymethyl)azetidin-1-yl]-4-oxo-N-[1,1,1-trifluorobutan-2-yl]-1,4-dihydro-1,8-naphthyridine-3-carboxamide] | 164 nM |
| CC(CC(F)(F)F)NC(=O)c1cn(-c2ccc(F)cc2F)c2nc(N(C)C)ccc2c1=O (racemic) [Example 46, rac-1-(2,4-Difluorophenyl)-7-(dimethylamino)-4-oxo-N-[4,4,4-trifluorobutan-2-yl]-1,4-dihydro-1,8-naphthyridine-3-carboxamide] | 127 nM |
| CN(C)c1ccc2c(=O)c(C(=O)NC(c3ccccc3Cl)C(F)(F)F)cn(-c3ccc(F)cc3F)c2n1 (racemic) [Example 48, rac-N-[1-(2-Chlorophenyl)-2,2,2-trifluoroethyl]-1-(2,4-difluorophenyl)-7-(dimethylamino)-4-oxo-1,4-dihydro-1,8-naphthyridine-3-carboxamide] | 110 nM |
| CCC(NC(=O)c1cn(-c2ccc(F)cc2F)c2nc(N3CCC(F)(F)C3)ccc2c1=O)C(F)(F)F (racemic) [Example 74, rac-1-(2,4-Difluorophenyl)-7-(3,3-difluoropyrrolidin-1-yl)-4-oxo-N-[1,1,1-trifluorobutan-2-yl]-1,4-dihydro-1,8-naphthyridine-3-carboxamide] | 58 nM |
| CCCC(NC(=O)c1cn(-c2ccc(F)cc2F)c2nc(N3CCC(F)(F)C3)ccc2c1=O)C(F)(F)F (racemic) [Example 76, rac-1-(2,4-Difluorophenyl)-7-(3,3-difluoropyrrolidin-1-yl)-4-oxo-N-[1,1,1-trifluoropentan-2-yl]-1,4-dihydro-1,8-naphthyridine-3-carboxamide] | 69 nM |
| CCCC(NC(=O)c1cn(-c2ccc(F)cc2F)c2nc(NCCF)ccc2c1=O)C(F)(F)F (racemic) [Example 86, rac-1-(2,4-Difluorophenyl)-7-[(2-fluoroethyl)amino]-4-oxo-N-[(2R)-1,1,1-trifluoropentan-2-yl]-1,4-dihydro-1,8-naphthyridine-3-carboxamide] | 108 nM |
| CC(C)CC(NC(=O)c1cn(-c2ccc(F)cc2F)c2nc(NCC(F)(F)F)ccc2c1=O)C(F)(F)F (racemic) [Example 95, rac-1-(2,4-Difluorophenyl)-4-oxo-7-[(2,2,2-trifluoroethyl)amino]-N-[1,1,1-trifluoro-4-methylpentan-2-yl]-1,4-dihydro-1,8-naphthyridine-3-carboxamide] | 144 nM |
| CC(NC(=O)c1cn(-c2ccc(F)cc2F)c2nc(N(C)CC(F)(F)F)ccc2c1=O)C(F)(F)F (racemic) [Example 99, rac-1-(2,4-Difluorophenyl)-7-[methyl(2,2,2-trifluoroethyl)amino]-4-oxo-N-[1,1,1-trifluoropropan-2-yl]-1,4-dihydro-1,8-naphthyridine-3-carboxamide] | 182 nM |
| CCC(NC(=O)c1cn(-c2ccc(F)cc2F)c2nc(N(C)CC(F)(F)F)ccc2c1=O)C(F)(F)F (racemic) [Example 100] | 143 nM |
| CC(NC(=O)c1cn(-c2ccc(F)cc2F)c2nc(N(C)CCF)ccc2c1=O)C(F)(F)F (racemic) [Example 105, rac-1-(2,4-Difluorophenyl)-7-[(2-fluoroethyl)(methyl)amino]-4-oxo-N-[1,1,1-trifluoropropan-2-yl]-1,4-dihydro-1,8-naphthyridine-3-carboxamide] | 146 nM |

Further lines, results first:

| EC50 | SMILES |
| --- | --- |
| 1640 nM | O=C(NC1(C(F)(F)F)CCOC1)c1cn(-c2ccc(F)cc2F)c2nc(N3C[C@@H](O)CC3=O)ccc2c1=O (mixture of isomers) [Example 238, 1-(2,4-Difluorophenyl)-7-[(4S)-4-hydroxy-2-oxopyrrolidin-1-yl]-4-oxo-N-[3-(trifluoromethyl)tetrahydrofuran-3-yl]-1,4-dihydro-1,8-naphthyridine-3-carboxamide] |
| 743 nM | CC[C@@H](NC(=O)c1cn(-c2ccc(F)cc2F)c2nc(N3CC(C)OC3=O)ccc2c1=O)C(F)(F)F (mixture of isomers) [Example 266, 1-(2,4-Difluorophenyl)-7-[5-methyl-2-oxo-1,3-oxazolidin-3-yl]-4-oxo-N-[(2R)-1,1,1-trifluorobutan-2-yl]-1,4-dihydro-1,8-naphthyridine-3-carboxamide] |
| 44 nM | O=C(NC(c1ccc(F)cc1)C(F)(F)F)c1cn(-c2ccc(F)cc2F)c2nc(N3C[C@@H](O)CC3=O)ccc2c1=O (mixture of isomers) [Example 273, 1-(2,4-Difluorophenyl)-7-[(4S)-4-hydroxy-2-oxopyrrolidin-1-yl]-4-oxo-N-[2,2,2-trifluoro-1-(4-fluorophenyl)ethyl]-1,4-dihydro-1,8-naphthyridine-3-carboxamide] |
| 49 nM | O=C(NC(c1cccc(Cl)c1)C(F)(F)F)c1cn(-c2ccc(F)cc2F)c2nc(N3C[C@@H](O)CC3=O)ccc2c1=O (mixture of isomers) [Example 274, N-[1-(3-Chlorophenyl)-2,2,2-trifluoroethyl]-1-(2,4-difluorophenyl)-7-[(4S)-4-hydroxy-2-oxopyrrolidin-1-yl]-4-oxo-1,4-dihydro-1,8-naphthyridine-3-carboxamide] |
| 141 nM | CC(NC(=O)c1cn(-c2ccc(F)cc2F)c2nc(N(C)CC(F)F)ccc2c1=O)C(F)(F)F (racemic) [Example 113, rac-7-[(2,2-Difluoroethyl)(methyl)amino]-1-(2,4-difluorophenyl)-4-oxo-N-[1,1,1-trifluoropropan-2-yl]-1,4-dihydro-1,8-naphthyridine-3-carboxamide] |
| 98 nM | CCC(NC(=O)c1cn(-c2ccc(F)cc2F)c2nc(N(C)CC(F)F)ccc2c1=O)C(F)(F)F (racemic) [Example 114, rac-7-[(2,2-Difluoroethyl)(methyl)amino]-1-(2,4-difluorophenyl)-4-oxo-N-[1,1,1-trifluorobutan-2-yl]-1,4-dihydro-1,8-naphthyridine-3-carboxamide] |
| 91 nM | O=C(NC12CC3CC(CC(C3)C1)C2)c1cn(-c2ccc(F)cc2F)c2nc(N3CCOC(CO)C3)ccc2c1=O (racemic) [Example 118, rac-1-(2,4-Difluorophenyl)-7-[2-(hydroxymethyl)morpholin-4-yl]-4-oxo-N-(tricyclo[3.3.1.1^3,7]dec-1-yl)-1,4-dihydro-1,8-naphthyridine-3-carboxamide] |
| 90 nM | CC1(O)CCCN(c2ccc3c(=O)c(C(=O)NC45CC6CC(CC(C6)C4)C5)cn(-c4ccc(F)cc4F)c3n2)C1 (racemic) [Example 119, rac-1-(2,4-Difluorophenyl)-7-(3-hydroxy-3-methylpiperidin-1-yl)-4-oxo-N-(tricyclo[3.3.1.1^3,7]dec-1-yl)-1,4-dihydro-1,8-naphthyridine-3-carboxamide] |
| 94 nM | CCC(NC(=O)c1cn(-c2ccc(F)cc2F)c2nc(NCC(F)F)ccc2c1=O)C(F)(F)F (racemic) [Example 122, rac-7-[(2,2-Difluoroethyl)amino]-1-(2,4-difluorophenyl)-4-oxo-N-[1,1,1-trifluorobutan-2-yl]-1,4-dihydro-1,8-naphthyridine-3-carboxamide] |
| 116 nM | CC(C)CC(NC(=O)c1cn(-c2ccc(F)cc2F)c2nc(NCC(F)F)ccc2c1=O)C(F)(F)F (racemic) [Example 125, rac-7-[(2,2-Difluoroethyl)amino]-1-(2,4-difluorophenyl)-4-oxo-N-[1,1,1-trifluoro-4-methylpentan-2-yl]-1,4-dihydro-1,8-naphthyridine-3-carboxamide] |
| 68 nM | Cc1cccc(C(NC(=O)c2cn(-c3ccc(F)cc3F)c3nc(N(C)C)ccc3c2=O)C(F)(F)F)c1 (racemic) [Example 138, rac-1-(2,4-Difluorophenyl)-7-(dimethylamino)-4-oxo-N-[2,2,2-trifluoro-1-(3-methylphenyl)ethyl]-1,4-dihydro-1,8-naphthyridine-3-carboxamide] |
| 65 nM | CN(C)c1ccc2c(=O)c(C(=O)NC(c3ccc(F)cc3)C(F)(F)F)cn(-c3ccc(F)cc3F)c2n1 (racemic) [Example 139, rac-1-(2,4-Difluorophenyl)-7-(dimethylamino)-4-oxo-N-[2,2,2-trifluoro-1-(4-fluorophenyl)ethyl]-1,4-dihydro-1,8-naphthyridine-3-carboxamide] |
| 68 nM | CN(C)c1ccc2c(=O)c(C(=O)NC(c3cccc(F)c3)C(F)(F)F)cn(-c3ccc(F)cc3F)c2n1 (racemic) [Example 140, rac-1-(2,4-Difluorophenyl)-7-(dimethylamino)-4-oxo-N-[2,2,2-trifluoro-1-(3-fluorophenyl)ethyl]-1,4-dihydro-1,8-naphthyridine-3-carboxamide] |
